Blank lines part the entries; values can stand above or below the compound they belong to.
Columns and labels:
SpF6OMT1 = target: T1, SpF6OMT1 (Salvia plebeia, UniProt A0AA49X7D9); test: HPLC-DAD / UPLC-Q-TOF-MS product detection; format: biochemical; settings: 1 mM SAM, 1 mM MgCl2, 1 mM DTT, 100 mM Tris-HCl, 28 °C, 12 h; product hispidulin
T1 construct: gene F6OMT1; full ORF in pET28a (His tag), E. coli BL21(DE3), Ni-NTA purified

SpF6OMT2 = target: T2, SpF6OMT2 (Salvia plebeia, UniProt A0AA49X7F5); test: HPLC-DAD / UPLC-Q-TOF-MS product detection; format: biochemical; settings: 1 mM SAM, 1 mM MgCl2, 1 mM DTT, 100 mM Tris-HCl, 28 °C, 12 h; product hispidulin
T2 construct: gene F6OMT2; full ORF in pET28a (His tag), E. coli BL21(DE3), Ni-NTA purified
T2 sequence (A0AA49X7F5 1-247): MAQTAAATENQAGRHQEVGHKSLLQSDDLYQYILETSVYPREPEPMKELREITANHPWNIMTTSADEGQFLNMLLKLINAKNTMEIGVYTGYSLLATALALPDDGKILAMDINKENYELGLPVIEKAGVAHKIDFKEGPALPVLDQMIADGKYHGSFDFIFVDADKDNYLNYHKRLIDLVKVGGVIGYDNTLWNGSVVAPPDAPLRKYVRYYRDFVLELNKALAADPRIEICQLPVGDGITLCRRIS

SpCHS1 = target: T3, SpCHS1 (Salvia plebeia, UniProt A0AA50A905); test: HPLC-DAD / UPLC-Q-TOF-MS of E. coli culture extract; format: cell-based; settings: substrate formed in situ by co-expressed RtTAL and Pt4CL from fed tyrosine; product naringenin chalcone
T3 construct: gene CHS1; ORF in pET28a, co-expressed in E. coli with RtTAL and Pt4CL (substrate supply)
T3 sequence (A0AA50A905 1-390): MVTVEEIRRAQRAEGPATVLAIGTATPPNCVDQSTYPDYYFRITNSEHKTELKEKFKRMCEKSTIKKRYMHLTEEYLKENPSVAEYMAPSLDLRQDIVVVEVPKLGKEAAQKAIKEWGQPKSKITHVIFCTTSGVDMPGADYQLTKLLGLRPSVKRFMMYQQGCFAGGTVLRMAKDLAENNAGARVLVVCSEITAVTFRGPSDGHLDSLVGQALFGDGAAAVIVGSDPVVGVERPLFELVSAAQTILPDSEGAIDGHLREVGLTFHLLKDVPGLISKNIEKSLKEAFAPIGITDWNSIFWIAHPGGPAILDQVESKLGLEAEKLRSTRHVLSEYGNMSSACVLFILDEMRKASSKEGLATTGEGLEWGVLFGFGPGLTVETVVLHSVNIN

SpPAL = target: T4, SpPAL (Salvia plebeia, UniProt A0AA50AET4); test: HPLC-DAD / UPLC-Q-TOF-MS product detection; format: biochemical; settings: 100 mM Tris-HCl, 37 °C, 8 h; product cinnamic acid
T4 construct: gene PAL; full ORF in pET28a (His tag), E. coli BL21(DE3), Ni-NTA purified
T4 sequence (A0AA50AET4 1-710): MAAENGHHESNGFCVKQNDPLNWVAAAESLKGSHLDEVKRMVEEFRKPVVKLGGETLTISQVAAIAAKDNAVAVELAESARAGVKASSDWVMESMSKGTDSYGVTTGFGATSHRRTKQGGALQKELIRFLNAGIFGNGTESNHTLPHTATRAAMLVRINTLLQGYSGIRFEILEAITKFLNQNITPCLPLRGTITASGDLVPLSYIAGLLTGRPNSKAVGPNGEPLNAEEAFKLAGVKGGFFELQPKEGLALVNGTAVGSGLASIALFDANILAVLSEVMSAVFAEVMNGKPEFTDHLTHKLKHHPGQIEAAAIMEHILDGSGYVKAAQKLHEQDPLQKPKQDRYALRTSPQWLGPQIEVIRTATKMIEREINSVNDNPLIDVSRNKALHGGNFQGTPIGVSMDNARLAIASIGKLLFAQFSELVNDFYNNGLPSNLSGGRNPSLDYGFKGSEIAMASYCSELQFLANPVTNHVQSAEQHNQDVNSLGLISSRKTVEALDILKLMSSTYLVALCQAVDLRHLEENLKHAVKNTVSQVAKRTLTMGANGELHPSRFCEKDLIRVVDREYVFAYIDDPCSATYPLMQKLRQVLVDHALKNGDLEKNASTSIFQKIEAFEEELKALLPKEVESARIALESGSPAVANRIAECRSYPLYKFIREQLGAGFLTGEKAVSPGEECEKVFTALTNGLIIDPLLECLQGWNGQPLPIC

SpC4H = target: T5, SpC4H (Salvia plebeia, UniProt A0AA50AF12); test: HPLC-DAD / UPLC-Q-TOF-MS product detection; format: biochemical; settings: 1 mM NADPH, 0.5 mM GSH, AtCPR added, 100 mM Tris-HCl, 28 °C, 12 h; product 4-coumaric acid
T5 construct: gene C4H; ORF in pET32a (Trx/His tag), E. coli BL21(DE3), Ni-NTA purified; AtCPR added; with NADPH--cytochrome P450 reductase (Arabidopsis thaliana)
T5 sequence (A0AA50AF12 entry or part of it): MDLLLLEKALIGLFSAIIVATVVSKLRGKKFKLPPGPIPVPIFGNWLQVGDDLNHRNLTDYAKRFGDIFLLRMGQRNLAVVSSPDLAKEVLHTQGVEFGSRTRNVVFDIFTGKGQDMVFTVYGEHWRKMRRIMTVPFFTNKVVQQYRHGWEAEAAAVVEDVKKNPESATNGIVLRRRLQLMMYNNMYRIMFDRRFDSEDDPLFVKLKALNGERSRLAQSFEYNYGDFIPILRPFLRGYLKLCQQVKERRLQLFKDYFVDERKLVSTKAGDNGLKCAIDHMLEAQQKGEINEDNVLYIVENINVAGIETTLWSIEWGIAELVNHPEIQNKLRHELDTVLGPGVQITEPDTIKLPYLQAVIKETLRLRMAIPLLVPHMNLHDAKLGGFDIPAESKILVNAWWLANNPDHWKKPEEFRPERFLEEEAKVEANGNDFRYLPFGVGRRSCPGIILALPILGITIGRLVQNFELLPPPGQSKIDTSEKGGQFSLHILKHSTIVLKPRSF

SpF6H1 = target: T6, SpF6H1 (Salvia plebeia, UniProt A0AA49X7K6); test: HPLC-DAD / UPLC-Q-TOF-MS product detection; format: biochemical; settings: 1 mM NADPH, 0.5 mM GSH, 100 mM Tris-HCl, 28 °C, 12 h; AtCPR co-expressed; product scutellarein
T6 construct: gene F6H1; ORF in pET32a (Trx/His tag), E. coli; co-expressed with AtCPR; with NADPH--cytochrome P450 reductase (Arabidopsis thaliana)
T6 sequence (A0AA49X7K6 1-521): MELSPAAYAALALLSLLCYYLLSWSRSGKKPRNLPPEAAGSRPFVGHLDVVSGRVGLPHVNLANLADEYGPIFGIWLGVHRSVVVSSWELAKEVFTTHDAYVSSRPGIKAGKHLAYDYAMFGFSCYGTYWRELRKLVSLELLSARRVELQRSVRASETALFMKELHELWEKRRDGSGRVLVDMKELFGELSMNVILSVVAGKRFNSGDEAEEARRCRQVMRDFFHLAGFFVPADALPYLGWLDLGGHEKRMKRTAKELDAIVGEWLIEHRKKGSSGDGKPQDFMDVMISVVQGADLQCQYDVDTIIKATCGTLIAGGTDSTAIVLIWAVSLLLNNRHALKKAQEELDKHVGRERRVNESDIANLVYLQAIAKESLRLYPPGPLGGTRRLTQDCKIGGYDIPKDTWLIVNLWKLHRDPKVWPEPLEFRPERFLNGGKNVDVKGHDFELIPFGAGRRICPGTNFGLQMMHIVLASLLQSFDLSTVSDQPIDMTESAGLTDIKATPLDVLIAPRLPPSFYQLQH

SpUGT2 = target: T7, SpUGT2 (Salvia plebeia, UniProt A0AA49XCW5); test: HPLC-DAD / UPLC-Q-TOF-MS product detection; format: biochemical; settings: 1 mM UDP-glucose, 50 mM PBS, 30 °C, 4 h; product homoplantaginin
T7 construct: gene UGT2; ORF in pSJ8-MBP (MBP fusion), E. coli BL21(DE3), Ni-NTA purified
T7 sequence (A0AA49XCW5 1-478): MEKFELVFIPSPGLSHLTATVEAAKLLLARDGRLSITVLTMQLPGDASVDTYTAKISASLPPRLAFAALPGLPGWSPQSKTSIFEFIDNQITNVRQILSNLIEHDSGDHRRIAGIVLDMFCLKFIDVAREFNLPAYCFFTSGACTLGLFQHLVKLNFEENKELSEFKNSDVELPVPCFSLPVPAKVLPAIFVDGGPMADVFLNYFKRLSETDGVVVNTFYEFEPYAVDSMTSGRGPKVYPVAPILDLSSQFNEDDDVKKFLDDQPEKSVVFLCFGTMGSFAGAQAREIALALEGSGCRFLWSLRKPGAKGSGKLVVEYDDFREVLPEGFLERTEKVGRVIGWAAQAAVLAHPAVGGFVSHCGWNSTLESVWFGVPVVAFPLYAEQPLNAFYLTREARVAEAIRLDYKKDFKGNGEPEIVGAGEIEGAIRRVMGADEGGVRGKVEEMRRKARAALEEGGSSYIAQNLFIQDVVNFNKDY

SpUGT3 = target: T8, SpUGT3 (Salvia plebeia, UniProt A0AA49X848); test: HPLC-DAD / UPLC-Q-TOF-MS product detection; format: biochemical; settings: 1 mM UDP-glucose, 50 mM PBS, 30 °C, 4 h; product homoplantaginin
T8 construct: gene UGT3; ORF in pSJ8-MBP (MBP fusion), E. coli BL21(DE3), Ni-NTA purified
T8 sequence (A0AA49X848 1-469): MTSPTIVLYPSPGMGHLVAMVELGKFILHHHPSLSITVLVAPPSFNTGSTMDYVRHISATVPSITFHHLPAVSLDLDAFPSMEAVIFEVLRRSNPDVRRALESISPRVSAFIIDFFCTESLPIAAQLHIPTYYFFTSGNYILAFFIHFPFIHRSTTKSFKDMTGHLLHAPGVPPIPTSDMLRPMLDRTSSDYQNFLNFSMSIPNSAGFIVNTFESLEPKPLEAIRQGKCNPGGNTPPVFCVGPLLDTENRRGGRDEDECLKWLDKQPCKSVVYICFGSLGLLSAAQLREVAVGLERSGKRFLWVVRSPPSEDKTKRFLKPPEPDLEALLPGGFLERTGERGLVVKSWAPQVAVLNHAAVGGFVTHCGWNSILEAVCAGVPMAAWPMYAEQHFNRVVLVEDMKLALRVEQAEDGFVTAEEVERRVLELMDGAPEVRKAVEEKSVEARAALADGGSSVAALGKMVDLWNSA

SpUGT1 = target: T9, SpUGT1 (Salvia plebeia, UniProt A0AA49X7M2); test: HPLC-DAD / UPLC-Q-TOF-MS product detection; format: biochemical; settings: 1 mM UDP-glucose, 50 mM PBS, 30 °C, 4 h; product homoplantaginin
T9 construct: gene UGT1; ORF in pSJ8-MBP (MBP fusion), E. coli BL21(DE3), Ni-NTA purified
T9 sequence (A0AA49X7M2 1-450): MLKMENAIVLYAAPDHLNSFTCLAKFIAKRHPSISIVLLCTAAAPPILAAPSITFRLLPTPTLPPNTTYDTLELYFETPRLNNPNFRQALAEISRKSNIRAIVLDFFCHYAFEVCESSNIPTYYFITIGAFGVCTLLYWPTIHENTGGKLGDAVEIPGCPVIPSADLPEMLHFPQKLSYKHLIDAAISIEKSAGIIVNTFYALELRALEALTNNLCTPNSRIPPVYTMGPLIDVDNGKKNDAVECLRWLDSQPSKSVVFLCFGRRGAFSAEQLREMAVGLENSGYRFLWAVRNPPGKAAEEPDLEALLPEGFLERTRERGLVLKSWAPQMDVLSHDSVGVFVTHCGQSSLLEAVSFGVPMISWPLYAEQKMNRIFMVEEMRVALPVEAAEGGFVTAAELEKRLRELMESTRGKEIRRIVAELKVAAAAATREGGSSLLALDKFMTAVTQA

SpFNS = target: T10, SpFNS (Salvia plebeia, UniProt A0AA49X7D7); test: HPLC-DAD / UPLC-Q-TOF-MS product detection; format: biochemical; settings: 1 mM NADPH, 0.5 mM GSH, 100 mM Tris-HCl, 28 °C, 12 h; AtCPR co-expressed; product apigenin
T10 construct: gene FNS
T10 sequence (A0AA49X7D7 1-507): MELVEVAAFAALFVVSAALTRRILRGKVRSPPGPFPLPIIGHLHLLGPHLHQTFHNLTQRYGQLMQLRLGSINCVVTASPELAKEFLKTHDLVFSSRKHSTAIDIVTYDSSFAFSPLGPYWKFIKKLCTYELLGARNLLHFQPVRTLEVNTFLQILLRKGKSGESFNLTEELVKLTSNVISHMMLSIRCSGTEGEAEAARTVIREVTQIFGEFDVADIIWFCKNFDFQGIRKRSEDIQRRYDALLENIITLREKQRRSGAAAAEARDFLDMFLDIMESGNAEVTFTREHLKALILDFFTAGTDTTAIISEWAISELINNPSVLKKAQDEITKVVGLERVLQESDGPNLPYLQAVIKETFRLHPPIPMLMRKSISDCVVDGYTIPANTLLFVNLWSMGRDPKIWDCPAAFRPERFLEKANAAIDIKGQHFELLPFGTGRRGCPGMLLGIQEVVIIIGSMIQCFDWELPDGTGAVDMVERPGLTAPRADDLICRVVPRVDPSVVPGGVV

SpCHI = target: T11, SpCHI (Salvia plebeia, UniProt A0AA49X7E2); test: HPLC-DAD / UPLC-Q-TOF-MS product detection; format: biochemical; settings: 100 mM PBS, 25 °C, 2 s; product naringenin
T11 construct: gene CHI; full ORF in pET28a (His tag), E. coli BL21(DE3), Ni-NTA purified
T11 sequence (A0AA49X7E2 1-225): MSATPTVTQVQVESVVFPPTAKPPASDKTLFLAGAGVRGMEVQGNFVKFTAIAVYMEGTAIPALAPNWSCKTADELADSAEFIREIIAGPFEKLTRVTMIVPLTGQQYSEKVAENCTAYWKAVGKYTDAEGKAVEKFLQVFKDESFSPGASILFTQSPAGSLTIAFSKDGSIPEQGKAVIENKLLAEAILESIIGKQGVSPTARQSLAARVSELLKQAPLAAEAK

T1 sequence (A0AA49X7D9 1-222): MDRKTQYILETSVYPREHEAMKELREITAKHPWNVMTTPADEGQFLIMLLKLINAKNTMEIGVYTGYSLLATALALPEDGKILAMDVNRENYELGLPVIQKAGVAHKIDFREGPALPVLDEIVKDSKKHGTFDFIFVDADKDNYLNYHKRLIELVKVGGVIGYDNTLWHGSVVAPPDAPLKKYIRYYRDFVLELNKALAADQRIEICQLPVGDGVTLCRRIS

Structure (SMILES): O=c1cc(-c2ccc(O)cc2)oc2cc(O)c(O)c(O)c12 [SA, scutellarein]
- HPLC-DAD / UPLC-Q-TOF-MS product detection (SpF6OMT1): SpF6OMT1 and SpF6OMT2 converted scutellarein into hispidulin
- HPLC-DAD / UPLC-Q-TOF-MS product detection (SpF6OMT2): SpF6OMT1 and SpF6OMT2 converted scutellarein into hispidulin

Structure (SMILES): CC(C)(COP(=O)(O)OP(=O)(O)OC[C@H]1O[C@@H](n2cnc3c(N)ncnc32)[C@H](O)[C@@H]1OP(=O)(O)O)[C@@H](O)C(=O)NCCC(=O)NCCSC(=O)/C=C/c1ccc(O)cc1 [4-coumaryl-CoA]
- HPLC-DAD / UPLC-Q-TOF-MS of E. coli culture extract (SpCHS1): providing a sufficient substrate for the catalytic reaction of SpCHS

Structure (SMILES): N[C@@H](Cc1ccccc1)C(=O)O [Phe, phenylalanine]
- HPLC-DAD / UPLC-Q-TOF-MS product detection (SpPAL): SpPAL can catalyze the formation of cinnamic acid from phenylalanine

Structure (SMILES): O=C(O)/C=C/c1ccccc1 [CiA, cinnamic acid]
- HPLC-DAD / UPLC-Q-TOF-MS product detection (SpC4H): SpC4H was able to catalyze the production of 4-coumaric acid from cinnamic acid

Structure (SMILES): O=c1cc(-c2ccc(O)cc2)oc2cc(O)cc(O)c12 [AG, apigenin]
- HPLC-DAD / UPLC-Q-TOF-MS product detection (SpF6H1): SpF6H1 produced scutellarein from apigenin, a precursor of hispidulin

Structure (SMILES): COc1c(O)cc2oc(-c3ccc(O)cc3)cc(=O)c2c1O [HD, hispidulin]
- HPLC-DAD / UPLC-Q-TOF-MS product detection (SpUGT2): SpUGT1, SpUGT2, and SpUGT3 produced homoplantaginin from hispidulin in vitro
- HPLC-DAD / UPLC-Q-TOF-MS product detection (SpUGT3): SpUGT1, SpUGT2, and SpUGT3 produced homoplantaginin from hispidulin in vitro
- HPLC-DAD / UPLC-Q-TOF-MS product detection (SpUGT1): SpUGT1, SpUGT2, and SpUGT3 produced homoplantaginin from hispidulin in vitro

- HPLC-DAD / UPLC-Q-TOF-MS product detection (SpFNS): SpFNS produced apigenin from naringenin
Structure (SMILES): O=C1C[C@@H](c2ccc(O)cc2)Oc2cc(O)cc(O)c21 [NG, naringenin]

Structure (SMILES): O=C(/C=C/c1ccc(O)cc1)c1c(O)cc(O)cc1O [NC, naringenin chalcone]
- HPLC-DAD / UPLC-Q-TOF-MS product detection (SpCHI): naringenin chalcone was completely consumed in the sample group to generate naringenin

Source: publication PMC10461478, “The chemical profiling of Salvia plebeia during different growth periods and the biosynthesis of its main flavonoids ingredients” (Frontiers in Plant Science, 2023)
